# Like-named read-outs stand apart in the source and are kept apart here.
# Experiments:
# Format in all cases: in vivo
# [1] = test system: ducksalad (Heteranthera limosa); assay: Test B flooded paddy test; conditions: Heteranthera limosa, 250 g ai/ha, Flood; 0 to 100 scale where 0 is no effect and 100 is complete control; read-out: Ducksalad plant response rating
# Procedure, shortened: (§1)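 Plants at 2-leaf stage flooded to 3 cm above soil, with compounds applied directly to paddy water and that depth maintained. Plants kept in greenhouse 13–15 d. Visual rating versus controls on a 0 (no effect) to 100 (complete control) scale.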
# rice (Oryra sativa) = assay: Test B flooded paddy test; conditions: Oryza sativa, 250 g ai/ha, Flood; 0 to 100 scale where 0 is no effect and 100 is complete control; read-out: Rice plant response rating
# Procedure, shortened: as §1
# [2] = test system: sedge, umbrella (small-flower umbrella sedge, Cyperus difformis); assay: Test B flooded paddy test; conditions: Cyperus difformis, 250 g ai/ha, Flood; 0 to 100 scale where 0 is no effect and 100 is complete control; read-out: Sedge, Umbrella plant response rating
# Procedure, shortened: as §1
# [3] = test system: barnyardgrass (Echinochloa crus-galli); assay: Test B flooded paddy test; conditions: Echinochloa crus-galli, 250 g ai/ha, Flood; 0 to 100 scale where 0 is no effect and 100 is complete control; read-out: Barnyardgrass plant response rating
# Procedure, shortened: as §1
# [4] = test system: giant foxtail (Setaria faberii); assay: Test A postemergence; conditions: Setaria faberi, post-emergence, 240 h, postemergence; for pest or weed control at 125 g/ha: 125 g ai/ha; for pest or weed control at 500 g/ha: 500 g ai/ha, 0 to 100 scale, 0 is no effect, 100 is complete control
# Procedure, shortened: (§2)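 In a loam soil and sand blend, planted seeds got a preemergence directed soil spray, and young plants at the one- to two-leaf stage, 2–10 cm high, got a postemergence application; ~10 d greenhouse hold; injury rated visually, 0 = none, 100 = complete control.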
# Kochia (Kochia scoparia) = assay: Test A postemergence; conditions: Bassia scoparia, post-emergence, 240 h, postemergence; for pest or weed control at 125 g/ha: 125 g ai/ha; for pest or weed control at 500 g/ha: 500 g ai/ha, 0 to 100 scale, 0 is no effect, 100 is complete control
# Procedure, shortened: as §2
# corn (Zea mays) = assay: Test A postemergence; conditions: Zea mays, post-emergence, 240 h, postemergence; for plant injury at 125 g/ha: 125 g ai/ha; for plant injury at 500 g/ha: 500 g ai/ha, 0 to 100 scale, 0 is no effect, 100 is complete control
# Procedure, shortened: as §2
# [5] = test system: ryegrass, Italian (Italian ryegrass, Lolium multiflorum); assay: Test A postemergence; conditions: Lolium multiflorum, post-emergence, 240 h, postemergence; for pest or weed control at 125 g/ha: 125 g ai/ha, visual injury vs untreated controls after approx. 10 d, 0 = no effect, 100 = complete control, read-out: Ryegrass, Italian plant response rating (0 to 100 scale); for pest or weed control at 500 g/ha: 500 g ai/ha, 0 to 100 scale, 0 is no effect, 100 is complete control, read-out: Ryegrass, Italian plant response rating
# Procedure, shortened: as §2
# [6] = test system: pigweed (Amaranthus retroflexus); assay: Test A postemergence; conditions: Amaranthus retroflexus, post-emergence, 240 h, postemergence; for pest or weed control at 125 g/ha: 125 g ai/ha, visual injury vs untreated controls after approx. 10 d, 0 = no effect, 100 = complete control, read-out: Pigweed plant response rating (0 to 100 scale); for pest or weed control at 500 g/ha: 500 g ai/ha, 0 to 100 scale, 0 is no effect, 100 is complete control, read-out: Pigweed plant response rating
# Procedure, shortened: as §2
# [7] = test system: blackgrass (Alopecurus myosuroides); assay: Test A postemergence; conditions: Alopecurus myosuroides, post-emergence, 240 h, postemergence; for pest or weed control at 125 g/ha: 125 g ai/ha; for pest or weed control at 500 g/ha: 500 g ai/ha, 0 to 100 scale, 0 is no effect, 100 is complete control
# Procedure, shortened: as §2
# [8] = test system: wheat (Triticum aestivum); assay: Test A postemergence; conditions: Triticum aestivum, post-emergence, 240 h, postemergence; for plant injury at 125 g/ha: 125 g ai/ha, visual injury vs untreated controls after approx. 10 d, 0 = no effect, 100 = complete control, read-out: Wheat plant response rating (0 to 100 scale); for plant injury at 500 g/ha: 500 g ai/ha, 0 to 100 scale, 0 is no effect, 100 is complete control, read-out: Wheat plant response rating
# Procedure, shortened: as §2
# [9] = test system: barnyardgrass (Echinochloa crus-galli); assay: Test A postemergence; conditions: Echinochloa crus-galli, post-emergence, 240 h, postemergence; for pest or weed control at 125 g/ha: 125 g ai/ha; for pest or weed control at 500 g/ha: 500 g ai/ha, 0 to 100 scale, 0 is no effect, 100 is complete control
# Procedure, shortened: as §2
# [10] = test system: ragweed (common ragweed, Ambrosia elatior); assay: Test A postemergence; conditions: Ambrosia artemisiifolia, post-emergence, 240 h, postemergence; for pest or weed control at 125 g/ha: 125 g ai/ha, visual injury vs untreated controls after approx. 10 d, 0 = no effect, 100 = complete control, read-out: Ragweed plant response rating (0 to 100 scale); for pest or weed control at 500 g/ha: 500 g ai/ha, 0 to 100 scale, 0 is no effect, 100 is complete control, read-out: Ragweed plant response rating
# Procedure, shortened: as §2
# [11] = test system: Galium (catchweed bedstraw, Galium aparine); assay: Test A postemergence; conditions: Galium, post-emergence, 240 h, postemergence; for pest or weed control at 125 g/ha: 125 g ai/ha; for pest or weed control at 500 g/ha: 500 g ai/ha, 0 to 100 scale, 0 is no effect, 100 is complete control
# Procedure, shortened: as §2
# [12] = test system: barnyardgrass (Echinochloa crus-galli); assay: Test A preemergence; conditions: Echinochloa crus-galli, pre-emergence, 240 h, preemergence, 0 to 100 scale where 0 is no effect and 100 is complete control, read-out: Barnyardgrass plant response rating; for pest or weed control at 125 g/ha: 125 g ai/ha, approx. 10 d; for pest or weed control at 500 g/ha: 500 g ai/ha
# Procedure, shortened: as §2
# [13] = read-out: Foxtail, Giant plant response rating
# [14] = read-out: Kochia plant response rating
# [15] = read-out: Corn plant response rating
# [16] = read-out: Blackgrass plant response rating
# [17] = read-out: Barnyardgrass plant response rating
# [18] = read-out: Galium plant response rating
SMILES,pest or weed control at 250 g/ha [1],pest or weed control at 250 g/ha (rice (Oryra sativa)),pest or weed control at 250 g/ha [2],pest or weed control at 250 g/ha [3],"pest or weed control at 500 g/ha [4, 13]",pest or weed control at 500 g/ha (Kochia (Kochia scoparia); [14]),plant injury at 500 g/ha (corn (Zea mays); [15]),pest or weed control at 125 g/ha [5],pest or weed control at 500 g/ha [5],pest or weed control at 125 g/ha [6],pest or weed control at 500 g/ha [6],"pest or weed control at 500 g/ha [7, 16]",plant injury at 125 g/ha [8],plant injury at 500 g/ha [8],"pest or weed control at 500 g/ha [9, 17]",pest or weed control at 125 g/ha [10],pest or weed control at 500 g/ha [10],"pest or weed control at 500 g/ha [11, 18]",pest or weed control at 125 g/ha [12],pest or weed control at 500 g/ha [12],other results
O=C1NC[C@H](c2ccc(F)c(OC(F)(F)C(F)F)c2)[C@H]1C(=O)Nc1ccc(F)cc1F (racemic) [Compound 1154],100%,30%,0%,30%,60%,60%,90%,30%,50%,60%,70%,90%,40%,80%,90%,0%,40%,70%,90%,90%,"pest or weed control at 125 g/ha ([4]; visual injury on 0 to 100 scale (0 no effect, 100 complete control), approx. 10 d, read-out: Foxtail, Giant plant response rating): 90%; pest or weed control at 125 g/ha (Kochia (Kochia scoparia); visual injury on 0 to 100 scale (0 no effect, 100 complete control), approx. 10 d, read-out: Kochia plant response rating): 60%; plant injury at 125 g/ha (corn (Zea mays); visual injury on 0 to 100 scale (0 no effect, 100 complete control), approx. 10 d, read-out: Corn plant response rating): 90%; pest or weed control at 125 g/ha ([7]; visual injury on 0 to 100 scale (0 no effect, 100 complete control), approx. 10 d, read-out: Blackgrass plant response rating): 70%; pest or weed control at 125 g/ha ([9]; visual injury on 0 to 100 scale (0 no effect, 100 complete control), approx. 10 d, read-out: Barnyardgrass plant response rating): 70%; pest or weed control at 125 g/ha ([11]; visual injury on 0 to 100 scale (0 no effect, 100 complete control), approx. 10 d, read-out: Galium plant response rating): 60%"
CCc1ccc([C@H]2CNC(=O)[C@@H]2C(=O)Nc2ccccc2SC)cc1 [Compound 1178],90%,20%,0%,20%,30%,40%,0%,0%,0%,0%,0%,20%,0%,0%,30%,0%,20%,30%,20%,50%,"pest or weed control at 125 g/ha ([4]; visual injury vs untreated controls after approx. 10 d, 0 = no effect, 100 = complete control, read-out: Foxtail, Giant plant response rating (0 to 100 scale)): 0%; pest or weed control at 125 g/ha (Kochia (Kochia scoparia); visual injury vs untreated controls after approx. 10 d, 0 = no effect, 100 = complete control, read-out: Kochia plant response rating (0 to 100 scale)): 20%; plant injury at 125 g/ha (corn (Zea mays); visual injury vs untreated controls after approx. 10 d, 0 = no effect, 100 = complete control, read-out: Corn plant response rating (0 to 100 scale)): 0%; pest or weed control at 125 g/ha ([7]; visual injury vs untreated controls after approx. 10 d, 0 = no effect, 100 = complete control, read-out: Blackgrass plant response rating (0 to 100 scale)): 0%; pest or weed control at 125 g/ha ([9]; visual injury vs untreated controls after approx. 10 d, 0 = no effect, 100 = complete control, read-out: Barnyardgrass plant response rating (0 to 100 scale)): 0%; pest or weed control at 125 g/ha ([11]; visual injury vs untreated controls after approx. 10 d, 0 = no effect, 100 = complete control, read-out: Galium plant response rating (0 to 100 scale)): 30%"

# Source: patent US12077503B2, “Substituted cyclic amides and their use as herbicides” (FMC CORPORATION, priority 2015, dated 2024)
